The target of one experiment is T1, M4 muscarinic receptor (Homo sapiens, UniProt P08173).
T1 construct: expressed in transfected cells; host or cells: CHO (M4-CHO)
T1 sequence (P08173 1-479): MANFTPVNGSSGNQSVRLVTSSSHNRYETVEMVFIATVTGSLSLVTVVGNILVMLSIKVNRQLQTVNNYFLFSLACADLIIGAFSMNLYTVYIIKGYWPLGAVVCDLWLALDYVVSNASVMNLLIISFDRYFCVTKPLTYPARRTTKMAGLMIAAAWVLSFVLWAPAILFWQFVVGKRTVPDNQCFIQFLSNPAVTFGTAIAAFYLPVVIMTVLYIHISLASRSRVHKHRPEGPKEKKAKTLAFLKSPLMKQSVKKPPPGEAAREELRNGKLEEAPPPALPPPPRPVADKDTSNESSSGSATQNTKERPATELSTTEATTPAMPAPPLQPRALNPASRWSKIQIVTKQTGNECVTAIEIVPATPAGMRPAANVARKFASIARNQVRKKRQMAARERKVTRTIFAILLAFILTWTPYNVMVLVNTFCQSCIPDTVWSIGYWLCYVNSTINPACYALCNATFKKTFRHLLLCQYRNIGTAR
Kind of experiment: Functional mobilization of intracellular calcium (FLIPR) in M4-CHO cells. The experiment is classed as cell-based. Conditions: M4 receptor, calcium mobilization; for Emax: read-out: M4 Efficacy. The essentials: (§1)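 FLIPR Ca2+ read, ex 488/em 540 nm, 60 s. Recombinant CHO lines (M1 or M4), dye-loaded Fluo-3 AM 60-90 min at 37° C, probenecid 1 mM, pH 7.4. Agonist: compound alone; inhibition: 15 min compound pre-incubation, then carbachol at EC80 for that subtype.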

The target in the next experiment is T2, M1 muscarinic receptor (Homo sapiens, UniProt P11229).
T2 construct: expressed in transfected cells; host or cells: CHO (M1-CHO)
T2 sequence (P11229 1-460): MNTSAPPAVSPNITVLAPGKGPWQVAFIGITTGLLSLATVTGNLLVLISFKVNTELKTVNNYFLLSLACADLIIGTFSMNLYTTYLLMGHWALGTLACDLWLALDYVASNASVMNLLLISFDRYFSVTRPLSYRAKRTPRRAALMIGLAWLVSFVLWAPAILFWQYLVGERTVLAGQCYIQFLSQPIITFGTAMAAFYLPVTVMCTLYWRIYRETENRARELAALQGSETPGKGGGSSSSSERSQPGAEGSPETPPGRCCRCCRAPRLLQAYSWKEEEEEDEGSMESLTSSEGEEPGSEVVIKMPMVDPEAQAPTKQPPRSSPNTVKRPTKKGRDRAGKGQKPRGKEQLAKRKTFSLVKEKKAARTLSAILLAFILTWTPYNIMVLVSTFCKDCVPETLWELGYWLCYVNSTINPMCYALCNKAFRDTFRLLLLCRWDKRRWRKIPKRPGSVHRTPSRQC
Briefly: Functional mobilization of intracellular calcium (FLIPR) in M1-CHO cells. The experiment is classed as cell-based. The conditions noted are these: M1 receptor, calcium mobilization; for Emax: read-out: M1 Efficacy. The essentials: as §1
(Calcium flux is commonly read through the fluorescence of an indicator in the cells.)

As to `COCCOC(=O)N1CCC(N2CCC3(CC2)CN(C(C)=O)c2ccc(F)cc23)CC1` [compound 284], at M4 muscarinic receptor, the “M4 Activity” value is “xx (activity was measured to be between 0.1 μM and 1.0 μM)”; the Emax is < 65%. At M1 muscarinic receptor, the “M1 Activity” value is “xx (activity was measured to be between 0.1 μM and 1.0 μM)”; the Emax was < 65%.

Regarding `CC(C)OC(=O)N1C2CCC1CC(N1CCC3(CCc4ccccc43)CC1)C2` (centres unmarked) [compound 285], on M4 muscarinic receptor, the “M4 Activity” value was “x (activity was measured to be greater than 1.0 μM)” and the Emax is < 65%. In addition, at M1 muscarinic receptor, the “M1 Activity” value was “xx (activity was measured to be between 0.1 μM and 1.0 μM)”; the Emax was < 65%.

For the compound `CCCCOC(=O)N1C2CCC1CC(N1CCC3(CC1)COc1ccc(F)cc13)C2` (centres unmarked) [compound 286], on M4 muscarinic receptor, the “M4 Activity” value is listed as “x (activity was measured to be greater than 1.0 μM)” and the Emax was < 65%. In addition, on M1 muscarinic receptor, the “M1 Activity” value was “xx (activity was measured to be between 0.1 μM and 1.0 μM)”; the Emax was < 65%.

As for `COC(=O)N1CC2(CCN(C3CC4CCC(C3)N4C(=O)OCC(C)C)CC2)c2cc(F)ccc21` (centres unmarked) [compound 287], at M4 muscarinic receptor, the “M4 Activity” value is “x (activity was measured to be greater than 1.0 μM)” and the Emax is < 65%. Besides, on M1 muscarinic receptor, the “M1 Activity” value is “xx (activity was measured to be between 0.1 μM and 1.0 μM)”; the Emax is < 65%.

Regarding `Clc1ccc2c(c1)C1(CCO2)CCN(CC2CCOCC2)CC1` [compound 288], at M4 muscarinic receptor, the “M4 Activity” value was “x (activity was measured to be greater than 1.0 μM)” and the Emax was < 65%. For the same compound, at M1 muscarinic receptor, the “M1 Activity” value is “x (activity was measured to be greater than 1.0 μM)” and the Emax is < 65%.

Take `CC(C)NC(=O)N1C2CCC1CC(N1CCC3(CC1)COc1ccc(F)cc13)C2` (centres unmarked) [compound 289]: on M4 muscarinic receptor, the “M4 Activity” value is “x (activity was measured to be greater than 1.0 μM)” and the Emax was < 65%. Also, on M1 muscarinic receptor, the “M1 Activity” value was “xxx (activity was measured to be less than 0.1 μM)” and the Emax was < 65%.

With `CCOC(=O)N1CCC(N2CCC3(CC2)CN(C(=O)N2CCOCC2)c2ccc(F)cc23)CC1` [compound 290], at M4 muscarinic receptor, the “M4 Activity” value is listed as “x (activity was measured to be greater than 1.0 μM)” and the Emax was < 65%. At M1 muscarinic receptor, the “M1 Activity” value was “xxx (activity was measured to be less than 0.1 μM)” and the Emax was < 65%.

Turning to `CC(=O)NC1CC2(CCN(C3CC4CCC3C4)CC2)c2ccccc21` (centres unmarked) [compound 291], at M4 muscarinic receptor, the “M4 Activity” value is “x (activity was measured to be greater than 1.0 μM)” and the Emax was in the range of 65 to 85%. Moreover, on M1 muscarinic receptor, the “M1 Activity” value was “xx (activity was measured to be between 0.1 μM and 1.0 μM)”; the Emax was 65 to 85%.

Take `Cc1ccc2c(c1)C1(CCN(C3CC4CCC3C4)CC1)CN2C(=O)c1ccno1` (centres unmarked) [compound 292]: at M4 muscarinic receptor, the “M4 Activity” value was “x (activity was measured to be greater than 1.0 μM)” and the Emax lay in the range of 65 to 85%. At M1 muscarinic receptor, the “M1 Activity” value is “xx (activity was measured to be between 0.1 μM and 1.0 μM)”; the Emax lay in the range of 65 to 85%.

As for `COCCOC(=O)N1CCC(N2CCC3(CC2)CN(C(C)=O)c2ccc(C)cc23)CC1` [compound 293], on M4 muscarinic receptor, the “M4 Activity” value is listed as “xxx (activity was measured to be less than 0.1 μM)” and the Emax was > 85%. On M1 muscarinic receptor, the “M1 Activity” value was “xx (activity was measured to be between 0.1 μM and 1.0 μM)”; the Emax is > 85%.

Consider `CCCOC(=O)N1C2CCC1CC(N1CCC3(CC1)CN(S(C)(=O)=O)c1ccc(F)cc13)C2` (centres unmarked) [compound 294], for which, at M4 muscarinic receptor, the “M4 Activity” value is “xx (activity was measured to be between 0.1 μM and 1.0 μM)”; the Emax is 65 to 85%. Further, at M1 muscarinic receptor, the “M1 Activity” value is “xx (activity was measured to be between 0.1 μM and 1.0 μM)”; the Emax was > 85%.

Turning to `CCOC(=O)N1CCC(N2CCC3(CC2)CN(C(C)=O)c2ccc(-c4ccc(C(F)(F)F)cc4)cc23)CC1` [compound 295], on M4 muscarinic receptor, the “M4 Activity” value is “xxx (activity was measured to be less than 0.1 μM)” and the Emax lay within 65 to 85%. In addition, at M1 muscarinic receptor, the “M1 Activity” value is listed as “xxx (activity was measured to be less than 0.1 μM)” and the Emax was 65 to 85%.

In the case of `CCOC(=O)N1C2CCC1CC(N1CCC3(CC1)CN(C(=O)NC(C)C)c1ccc(F)cc13)C2` (centres unmarked) [compound 296], on M4 muscarinic receptor, the “M4 Activity” value is recorded as “x (activity was measured to be greater than 1.0 μM)” and the Emax lay within 65 to 85%. Besides, at M1 muscarinic receptor, the “M1 Activity” value is “x (activity was measured to be greater than 1.0 μM)” and the Emax lay in the range of 65 to 85%.

`CCCOC(=O)N1C2CCC1CC(N1CCC3(CC1)CN(C(=O)O[C@@H]1CCOC1)c1ccc(F)cc13)C2` (some centres unmarked) [compound 297]: at M4 muscarinic receptor, the “M4 Activity” value is “x (activity was measured to be greater than 1.0 μM)”; the “M4 Efficacy” value is “xx (efficacy was calculated to be between 85% and 65%)”. In addition, at M1 muscarinic receptor, the “M1 Activity” value was “x (activity was measured to be greater than 1.0 μM)”; the “M1 Efficacy” value was “xx (efficacy was calculated to be between 85% and 65%)”.

As to `CCOC(=O)N1C2CCC1CC(N1CCC3(CC1)CN(C(=O)Oc1ccc(F)cc1)c1ccc(F)cc13)C2` (centres unmarked) [compound 298], at M4 muscarinic receptor, the “M4 Activity” value is on record as “x (activity was measured to be greater than 1.0 μM)” and the Emax is 65 to 85%. Further, on M1 muscarinic receptor, the “M1 Activity” value is listed as “x (activity was measured to be greater than 1.0 μM)” and the Emax was < 65%.

For the compound `Fc1ccc2c(c1)C1(CCN(C3CCOCC3)CC1)CN2` [compound 299], at M4 muscarinic receptor, the “M4 Activity” value was “x (activity was measured to be greater than 1.0 μM)” and the Emax was in the range of 65 to 85%. Also, at M1 muscarinic receptor, the “M1 Activity” value is reported as “x (activity was measured to be greater than 1.0 μM)” and the Emax was 65 to 85%.

In the case of `Fc1ccc2c(c1)C1(CCN(C[C@H]3C[C@H]4CC[C@H]3O4)CC1)CN2` [compound 300], at M4 muscarinic receptor, the “M4 Activity” value is on record as “x (activity was measured to be greater than 1.0 μM)” and the Emax was < 65%. On M1 muscarinic receptor, the “M1 Activity” value was “xx (activity was measured to be between 0.1 μM and 1.0 μM)”; the Emax lay in the range of 65 to 85%.

Consider `O=C(O[C@H]1CCOC1)N1C2CCC1CC(N1CCC3(CC1)C(=O)Nc1ccccc13)C2` (some centres unmarked) [compound 301], for which, at M4 muscarinic receptor, the “M4 Activity” value is given as “x (activity was measured to be greater than 1.0 μM)” and the Emax was < 65%. In addition, on M1 muscarinic receptor, the “M1 Activity” value is on record as “x (activity was measured to be greater than 1.0 μM)” and the Emax was < 65%.

Consider `CCCOC(=O)N1C2CCC1CC(N1CCC3(CC1)CN(C(=O)C1CCC1)c1ccc(F)cc13)C2` (centres unmarked) [compound 302], for which, at M4 muscarinic receptor, the “M4 Activity” value is recorded as “x (activity was measured to be greater than 1.0 μM)” and the Emax was < 65%. Moreover, at M1 muscarinic receptor, the “M1 Activity” value was “x (activity was measured to be greater than 1.0 μM)” and the Emax was < 65%.

With `CCOC(=O)N1CCC(N2CCC3(CC2)CN(CC(=O)CC)c2ccc(F)cc23)CC1` [compound 303], on M4 muscarinic receptor, the “M4 Activity” value is on record as “x (activity was measured to be greater than 1.0 μM)” and the Emax was < 65%. For the same compound, on M1 muscarinic receptor, the “M1 Activity” value is “xx (activity was measured to be between 0.1 μM and 1.0 μM)”; the Emax is > 85%.

As for `COCCOC(=O)N1CC2(CCN(C3CC4CCC(C3)N4C(=O)O[C@@H]3CCOC3)CC2)c2cc(F)ccc21` (some centres unmarked) [compound 304], at M4 muscarinic receptor, the “M4 Activity” value is reported as “x (activity was measured to be greater than 1.0 μM)” and the Emax is < 65%. At M1 muscarinic receptor, the “M1 Activity” value is on record as “xxx (activity was measured to be less than 0.1 μM)” and the Emax was in the range of 65 to 85%.

On to `CC(=O)NC1CC2(CCN(CC3CC4C=CC3C4)CC2)c2ccccc21` (centres unmarked) [compound 305], for which, at M4 muscarinic receptor, the “M4 Activity” value is reported as “x (activity was measured to be greater than 1.0 μM)” and the “M4 Efficacy” value was “x (efficacy was calculated to be less than 65%)”. Besides, on M1 muscarinic receptor, the “M1 Activity” value is on record as “x (activity was measured to be greater than 1.0 μM)” and the “M1 Efficacy” value is “x (efficacy was calculated to be less than 65%)”.

With `CCCOC(=O)N1CCC(CN2CCC3(CC2)CN(C(C)=O)c2ccc(C)cc23)CC1` [compound 306], on M4 muscarinic receptor, the “M4 Activity” value is “x (activity was measured to be greater than 1.0 μM)” and the Emax is < 65%. On M1 muscarinic receptor, the “M1 Activity” value is reported as “x (activity was measured to be greater than 1.0 μM)” and the Emax was < 65%.
